Results: patent US20060020004A1, “Isoxazolidine compounds for treatment of bacterial infections” (Infinity Pharmaceuticals, Inc., priority 2004, published 2006)
Values after ≈ are worked out from the molar mass of the structure shown.

Columns and labels:
[1] = tested on: Staphylococcus aureus (Smith) ATCC 19636; assay: MIC determination, S. aureus; type: cell-based; details: S. aureus ATCC 19636, 17 h; for MIC: Staphylococcus aureus, ATCC19636
Description: (§1) Susceptibility testing for bacterial cultures is performed according to the National Council for Clinical Laboratory Standards (NCCLS) protocol M100-S12, “Performance Standards for Antimicrobial Susceptibility Testing.” The bacterial strains recommended by NCCLS were obtained from the American Type Culutre Collection (ATCC) (Table) and were maintained on Mueller Hinton (MHA) agar plates plus or minus 3% lysed horse blood (see Table). The bacteria were grown in Cation adjusted Mueller Hinton Broth (CaMHB) for liquid growth and susceptibility testing. S. cerevisiae (yeast) is grown in yeast peptone dextrose (YPD) media.
(§2) All bacterial cultures were grown at 37 degrees Celsius. Fresh colonies of S. aureus and MRSA were inoculated into liquid media and grown overnight and diluted the next day to grow to mid-log (Table 2). E. faecalis and S. pneumonia mid-log cultures were started directly from colony on plates. To attain mid-log growth, cultures were grown to an optical density (OD) at A590 of 0.2-0.8 (see Table 2) and then diluted to proper OD to obtain 5×10^5 cells/mL.
(§3) Diluted bacterial cultures are added to compound plates with compound diluted 2-fold from 100 μg/mL to 0.2 μg/mL final concentration in DMSO. Control antibiotics are also added: vancomycin, linezolid, and penicillin. In 384 well plates, 0.5 μL compound is added followed by addition of 50 μL of culture. DMSO alone is included as a control. Plates incubated at 37 degrees Celsius for 17-24 h.
(§4) Plates with cells mixed with compounds are incubated for 17 h for S. aureus and yeast, 24 h for MRSA, and all Enterococcus and Streptococcus strains. Yeast plates are incubated […].
(§5) Viability is determined by reading plates at A590 to determine optical density of treated and untreated cells and determining growth inhibition relative to controls.

[2] = tested on: Methicillin resistant S. aureus ATCC 33591; assay: MIC determination, MRSA; type: cell-based, Staphylococcus aureus; details: MRSA ATCC 33591, 24 h; for MIC: Staphylococcus aureus
Description: as §1, §2, §3, §4, §5

[3] = tested on: Penicillin-res. S. pneumonia ATCC 700671; assay: MIC determination, PRSP; type: cell-based, Streptococcus pneumonia; details: ATCC 700671, 24 h; for MIC: Streptococcus pneumoniae
Description: as §1, §2, §3, §4, §5

[4] = tested on: Van-intermediate E. faecalis ATCC 51299 / Van-resistant E. faecalis ATCC 700221; assay: MIC determination, VIRE/VRE; type: cell-based, Enterococcus faecalis; details: ATCC 51299 / 700221, 24 h
Description: The MICs were determined using a broth micro-dilution assay in accordance with that recommended by the National Committee for Clinical Laboratory Standards (NCCLS). The final bacterial inoculate contained approximately 5×10^5 cfu/mL and the plates were incubated at 35° C. for 18 h in ambient air (Streptococci in 5% CO2). The MIC was defined as the lowest drug concentration that prevented visible growth.
as §1, §2, §3, §4, §5

[5] = tested on: Enterococcus faecalis ATCC 29212; assay: MIC determination, E. faecalis; type: cell-based; details: ATCC 29212, 24 h
Description: as §1, §2, §3, §4, §5

[6] = tested on: Streptococcus pneumonia ATCC 49619; assay: MIC determination, S. pneumonia; type: cell-based; details: for MIC S. pneuomiae: ATCC 49619, 24 h; for MIC: Streptococcus pneumoniae, ATCC49619, 24 h, read-out: MIC S. pneuomiae
Description: as §1, §2, §3, §4, §5

S. cerevisiae Δpdr5 = assay: MIC determination, yeast; type: cell-based; details: YPD, 30 degrees Celsius
Description: as §1, §3
Yeast cultures are started from a fresh colony into YPD media and then diluted to OD of 0.002. Diluted yeast is added to compound plates as bacteria but incubated at 30 degrees Celsius for 17 h. Controls are amphotericin B and voriconazole.
as §4, §5

MIC ([5]; Enterococcus faecalis, ATCC29212) [µg/mL]	SMILES	MIC S. aureus [1]	MIC MRSA [2]	MIC PRSP [3]	MIC VIRE/VRE [4]	MIC E. faecalis [5]	MIC S. pneuomiae [6]	MIC S. cerevisiae Δpdr5 (S. cerevisiae Δpdr5)	MIC [1] [µg/mL]	MIC [2] [µg/mL]	MIC [3] [µg/mL]	MIC [6] [µg/mL]
–	CC(O)C1ON(Cc2ccc(C=Cc3ccc(Cl)cc3)cc2)C(C(=O)NCCc2c[nH]c3ccccc23)C1CO (stereo not drawn)	*** (the MIC is less than 5 μg/mL)	*** (the MIC is less than 5 μg/mL)	** (the MIC is 5-90 μg/mL)	* (the MIC is >90 μg/mL)	*** (the MIC is less than 5 μg/mL)	** (the MIC is 5-90 μg/mL)	* (the MIC is >90 μg/mL)	–	–	–	–
–	CC(O)C1ON(Cc2ccc(C#Cc3ccc(Cl)cc3)cc2)C(C(=O)NCCc2c[nH]c3ccccc23)C1CO (stereo not drawn)	*** (the MIC is less than 5 μg/mL)	*** (the MIC is less than 5 μg/mL)	** (the MIC is 5-90 μg/mL)	** (the MIC is 5-90 μg/mL)	** (the MIC is 5-90 μg/mL)	** (the MIC is 5-90 μg/mL)	** (the MIC is 5-90 μg/mL)	–	–	–	–
–	CC(O)C1ON(Cc2cccc(C#Cc3ccc(Cl)cc3)c2)C(C(=O)NCCc2c[nH]c3ccccc23)C1CO (stereo not drawn)	*** (the MIC is less than 5 μg/mL)	*** (the MIC is less than 5 μg/mL)	** (the MIC is 5-90 μg/mL)	** (the MIC is 5-90 μg/mL)	** (the MIC is 5-90 μg/mL)	** (the MIC is 5-90 μg/mL)	** (the MIC is 5-90 μg/mL)	–	–	–	–
–	Cc1ccc(C#Cc2cccc(CN3OC(C(C)O)C(CO)C3C(=O)NCCc3c[nH]c4ccccc34)c2)cc1 (stereo not drawn)	*** (the MIC is less than 5 μg/mL)	*** (the MIC is less than 5 μg/mL)	** (the MIC is 5-90 μg/mL)	** (the MIC is 5-90 μg/mL)	** (the MIC is 5-90 μg/mL)	** (the MIC is 5-90 μg/mL)	** (the MIC is 5-90 μg/mL)	–	–	–	–
–	Cc1ccc(CCc2ccc(CN3OC(C(C)O)C(CO)C3C(=O)NCCc3c[nH]c4ccccc34)cc2)cc1 (stereo not drawn)	*** (the MIC is less than 5 μg/mL)	*** (the MIC is less than 5 μg/mL)	** (the MIC is 5-90 μg/mL)	–	–	** (the MIC is 5-90 μg/mL)	–	–	–	–	–
–	CC(O)C1ON(Cc2ccc(CCc3ccc(Cl)cc3)cc2)C(C(=O)NCCc2c[nH]c3ccccc23)C1CO (stereo not drawn)	** (the MIC is 5-90 μg/mL)	** (the MIC is 5-90 μg/mL)	** (the MIC is 5-90 μg/mL)	–	–	** (the MIC is 5-90 μg/mL)	–	–	–	–	–
–	Cc1ccc(C#Cc2ccc(CN3OC4CNCC4C3C(=O)NCCc3c[nH]c4ccccc34)cc2)cc1 (stereo not drawn)	–	–	–	–	–	–	–	5 to 90 (≈ 9.91 to 178 µM)	5 to 90 (≈ 9.91 to 178 µM)	5 to 90 (≈ 9.91 to 178 µM)	5 to 90 (≈ 9.91 to 178 µM)
–	Cc1ccc(C=Cc2ccc(CN3OC(C(C)O)C(CO)C3C(=O)NCCc3c[nH]c4ccccc34)cc2)cc1 (stereo not drawn)	** (the MIC is 5-90 μg/mL)	** (the MIC is 5-90 μg/mL)	** (the MIC is 5-90 μg/mL)	–	–	** (the MIC is 5-90 μg/mL)	–	–	–	–	–
–	CC(O)C1ON(Cc2ccc(-c3ccc(OC4CCCCO4)cc3)cc2)C(C(=O)NCCc2c[nH]c3ccccc23)C1CO (stereo not drawn)	** (the MIC is 5-90 μg/mL)	** (the MIC is 5-90 μg/mL)	–	–	–	** (the MIC is 5-90 μg/mL)	–	–	–	–	–
–	Cc1ccc(C#Cc2ccc(CN3O[C@H]([C@@H](C)O)[C@H](CO)[C@@H]3CNCCc3c[nH]c4ccccc34)cc2)cc1.Cl	–	–	–	–	–	–	–	5 to 90	5 to 90	> 90	> 90
–	CC(=O)c1ccc(-c2ccc(CN3OC(C(C)O)C(CO)C3C(=O)NCCc3c[nH]c4ccccc34)cc2)cc1 (stereo not drawn)	** (the MIC is 5-90 μg/mL)	** (the MIC is 5-90 μg/mL)	* (the MIC is >90 μg/mL)	–	** (the MIC is 5-90 μg/mL)	–	–	–	–	–	–
–	CC(O)C1ON(Cc2ccccc2)C(C(=O)NCCc2c[nH]c3ccccc23)C1CO (stereo not drawn)	** (the MIC is 5-90 μg/mL)	** (the MIC is 5-90 μg/mL)	* (the MIC is >90 μg/mL)	** (the MIC is 5-90 μg/mL)	** (the MIC is 5-90 μg/mL)	* (the MIC is >90 μg/mL)	** (the MIC is 5-90 μg/mL)	–	–	–	–
5 to 90 (≈ 9.06 to 163 µM)	Cc1ccc(C#Cc2ccc(CN3O[C@H]([C@@H](C)O)[C@H](CO)[C@@H]3C(=O)NCCCNC(=O)OC(C)(C)C)cc2)cc1	–	–	–	–	–	–	–	5 to 90 (≈ 9.06 to 163 µM)	5 to 90 (≈ 9.06 to 163 µM)	5 to 90 (≈ 9.06 to 163 µM)	–
–	CCOCCCNC(=O)[C@H]1[C@@H](CO)[C@@H]([C@@H](C)O)ON1Cc1ccc(C#Cc2ccc(C)cc2)cc1	–	–	–	–	–	–	–	5 to 90 (≈ 10.4 to 187 µM)	–	5 to 90 (≈ 10.4 to 187 µM)	5 to 90 (≈ 10.4 to 187 µM)
–	Cc1ccc(C#Cc2ccc(CN3OC(C(C)O)C(CO)C3C(=O)NCCc3cnc[nH]3)cc2)cc1 (stereo not drawn)	* (the MIC is >90 μg/mL)	** (the MIC is 5-90 μg/mL)	–	–	–	* (the MIC is >90 μg/mL)	–	–	–	–	–
–	CC(O)C1ON(Cc2ccc(C=Cc3ccc(C(F)(F)F)cc3)cc2)C(C(=O)NCCc2c[nH]c3ccccc23)C1CO (stereo not drawn)	** (the MIC is 5-90 μg/mL)	** (the MIC is 5-90 μg/mL)	** (the MIC is 5-90 μg/mL)	–	–	** (the MIC is 5-90 μg/mL)	–	–	–	–	–
–	CC(O)C1ON(CC2CCCCC2)C(C(=O)NCCc2c[nH]c3ccccc23)C1CO (stereo not drawn)	** (the MIC is 5-90 μg/mL)	* (the MIC is >90 μg/mL)	* (the MIC is >90 μg/mL)	–	** (the MIC is 5-90 μg/mL)	–	–	–	–	–	–
–	Cc1ccc(C#Cc2ccc(CN3OC(C(C)O)C(CO)C3C(=O)NCCc3c[nH]c4ccccc34)cc2)cc1 (stereo not drawn) [drawing 205]	*** (the MIC is less than 5 μg/mL)	*** (the MIC is less than 5 μg/mL)	** (the MIC is 5-90 μg/mL)	** (the MIC is 5-90 μg/mL)	** (the MIC is 5-90 μg/mL)	** (the MIC is 5-90 μg/mL)	** (the MIC is 5-90 μg/mL)	–	–	–	–
–	Cc1ccc(C#Cc2ccc(CN3OC(C(C)O)C(CO)C3C(=O)NCCc3c[nH]c4ccccc34)cc2)cc1 (stereo not drawn) [drawing 206]	*** (the MIC is less than 5 μg/mL)	*** (the MIC is less than 5 μg/mL)	** (the MIC is 5-90 μg/mL)	–	–	–	–	–	–	–	–
–	CC(O)C1ON(Cc2ccc(C=Cc3ccccc3)cc2)C(C(=O)NCCc2c[nH]c3ccccc23)C1CO (stereo not drawn) [drawing 216]	*** (the MIC is less than 5 μg/mL)	*** (the MIC is less than 5 μg/mL)	** (the MIC is 5-90 μg/mL)	–	–	–	–	–	–	–	–
–	CC(O)C1ON(Cc2ccc(C=Cc3ccccc3)cc2)C(C(=O)NCCc2c[nH]c3ccccc23)C1CO (stereo not drawn) [drawing 219]	*** (the MIC is less than 5 μg/mL)	** (the MIC is 5-90 μg/mL)	** (the MIC is 5-90 μg/mL)	* (the MIC is >90 μg/mL)	* (the MIC is >90 μg/mL)	** (the MIC is 5-90 μg/mL)	–	–	–	–	–
–	Cc1ccc(C#Cc2ccc(CN3OCC(CO)C3C(=O)NCCc3c[nH]c4ccccc34)cc2)cc1 (stereo not drawn) [drawing 221]	** (the MIC is 5-90 μg/mL)	** (the MIC is 5-90 μg/mL)	** (the MIC is 5-90 μg/mL)	–	–	–	–	–	–	–	–
